# In patent publication EP2823816A1, “Inhibitors of Neuropilin and use thereof for the treatment of Neuropilin-related diseases” (Tragex Pharma, priority 2013, dated 2015):
# Legend:
# VAL = assay: WST-1 proliferation / cytotoxic test; format: cell-based; conditions: Homo sapiens, B lymphoma, wst-1 cytotoxic test, 72 h
# Experimental: (§1) After observation of cells under the microscope, old media were removed and the adherent cells washed gently twice with PBS (Phosphate Buffer Saline, -Ca^2+, -Mg^2+, Lonza cat n°: 17-512F/12). All cells were detached with 3 ml of trypsin/EDTA (chelator of calcium and magnesium ions) (Lonza), incubated for 5 min at 37°C, and examined using a microscope to ensure that the cells were detached and floating. Then, 3 ml TNS (Trypsin Neutralizing Solution, Lonza, France, cat n° CC-5002) or of culture medium were added to inactivate the trypsin, and the cell suspension was transferred in a falcon tube and centrifuged for 7 min at 1400 rpm. The supernatant was removed and the cell pellet resuspended in […] of culture medium. 50 µL of this solution were transferred in 20 µL of isotonic solution and the cells were counted by count cellular (Beckman Coulter). At day 0, 200 µL of cellular suspension (3.10^3 cells/well for the HUVEC cells, breast cancer cells (MDA-MB-231 1.10^4 cells/well, MDA-MB-468 2.10^4 cells/well,); cervical cancer cells (HeLa 5.000 cells/well); colon cancer cells (HCT-116 5.10^3 cells/well, HCT-29 1.1.10^4 cells/well); pancreas cancer cells (Panc-10.5 1.5.10^4 cells/well); brain cancer cells (U87 5.10^3 cells/well, SH-SYSY 8.10^4 cells/well); Lung cancer cells (A 549 1.10^4 cells/well, NCI-H460 1.10^4 cells/well); fibrosarcoma cells (HT 1080 8.10^3 cells/well); Burkitt's lymphoma cells (DAUDI 3.10^4 cells/well); acute lymphoblastic leukemia cells (CEM 3.10^4 cells/well); chronic myeloid leukemia cells (ERY 5.10^4 cells/well); mantle cell lymphoma (GRANTA 1.10^5 cells/well); B lymphoma cells (VAL 1.10^5 cells/well)) were then plated on 96 well plates and incubated at 37°C in a humidified atmosphere of 5% CO2 for 24 h.
# (§2) At day 1, the compound 1 of the invention was added at increasing concentrations (0.1 - 10 µM) in the wells and plates were incubated at 37°C in a humidified atmosphere of 5% CO2 for 72 h.
# (§3) The cell proliferation WST-1 assay is a colorimetric assay for the quantification of cell proliferation and viability, based on the enzymatic cleavage of the tetrazolium salt WST-1 added to the culture medium, to a water soluble colored formazan dye, detected by absorbance at 450 nm, by mitochondrial succinate-tetrazoliumreductase in viable cells. An augmentation in enzyme activity will then lead to an increase in the amount of formazan dye formed, which directly correlates to the number of metabolically active cells in the culture.
# (§4) After an incubation period of 72 h, at day 4, were prepared the 19 mL medium with reagent WST-1 1mL ([…]). The medium was removed from the 96 microplate and 200 µL of solution WST-1/medium were added for each well. The cells were incubated at 37°C in a humidified atmosphere of 5% CO2 for 1h30 and the absorbance at 450-655 nm was measured by Microplate Manager 5.2 (Bio-Rad).
# HT-29 = assay: WST-1 proliferation / cytotoxic test; format: cell-based; conditions: Homo sapiens, Colon, wst-1 cytotoxic test, 72 h
# Experimental: as §1, §2, §3, §4
# HCT-116 = assay: WST-1 proliferation / cytotoxic test; format: cell-based; conditions: Homo sapiens, Colon, wst-1 cytotoxic test, 72 h
# Experimental: as §1, §2, §3, §4
# ERY-1 = assay: WST-1 proliferation / cytotoxic test; format: cell-based; conditions: Homo sapiens, Chronic myeloid leukemia, wst-1 cytotoxic test, 72 h
# Experimental: as §1, §2, §3, §4
# NCI-H460 = assay: WST-1 proliferation / cytotoxic test; format: cell-based; conditions: Homo sapiens, Lung, wst-1 cytotoxic test, 72 h
# Experimental: as §1, §2, §3, §4
# U87 = assay: WST-1 proliferation / cytotoxic test; format: cell-based; conditions: Homo sapiens, U-87 MG, Brain, wst-1 cytotoxic test, 72 h
# Experimental: as §1, §2, §3, §4
# DAUDI = assay: WST-1 proliferation / cytotoxic test; format: cell-based; conditions: Homo sapiens, Burkitt's lymphoma, wst-1 cytotoxic test, 72 h
# Experimental: as §1, §2, §3, §4
# HeLa = assay: WST-1 proliferation / cytotoxic test; format: cell-based; conditions: Homo sapiens, Cervical, wst-1 cytotoxic test, 72 h
# Experimental: as §1, §2, §3, §4
# Panc-10.5 = assay: WST-1 proliferation / cytotoxic test; format: cell-based; conditions: Homo sapiens, Pancreas, wst-1 cytotoxic test, 72 h
# Experimental: as §1, §2, §3, §4
# CEM = assay: WST-1 proliferation / cytotoxic test; format: cell-based; conditions: Homo sapiens, CCRF-CEM, Acute lymphoblastic leukemia, wst-1 cytotoxic test, 72 h
# Experimental: as §1, §2, §3, §4
# Neuropilin-1 (NRP-1) = molecular target: T1, Neuropilin-1 (NRP-1) (Homo sapiens, UniProt O14786); assay: ELISA, inhibition of VEGF binding to coated receptor; conditions: VEGF-A165b / NRP-1; compound at 10 µM; read-out: Percent of binding inhibition (± SD)
# T1 construct: purchased R&D Systems, UK 3870-N1-025
# Experimental: Elisa test was performed covering a 96-well microplate (BD Biosciences, France, cat n° 353046) surface with 100 µL of 1X PBS, pH 7.4 with Ca^2+ and Mg^2+, (Lonza, France, cat n° 17-513F/12) solution containing 0.2 µg/mL of VEGF-R1 (R&D Systems, UK, cat n° 321-FL-050/CF) or 2 µg/mL of NRP-1 (R&D Systems, UK, cat n° 3870-N1-025). The plate was sealed and incubated overnight at 4°C. After 3 washes with 200 µL of 1X PBS 0.5% (v/v) Tween 20 (Sigma, France, cat n° 34078) (Buffer A), the plate was blocked by adding 200 µL of 1× PBS with 0.5% (w/v) BSA (Eurobio, France, cat n° GAUBSA01-65) and agitated at 37°C for 2 h. […] Luminescence was quantified with an EnVision™ 2101 Multilabel reader (Perkin Elmer, USA) and the data analyzed by Wallac Envision manager software. […] Non-specific binding is defined as the signal measured in the absence of receptor coated on the microplate. The specific binding was calculated as the difference between total binding and non-specific binding. The percentage of inhibition was calculated as following: Inhibition % = 100 × ((Signal measured-non specific binding signal))/((Max binding signal obtained without inhibitor-non specific binding signal without receptor)) [formula]
# T1 sequence (O14786 22-644 isoform O14786-2 limits assumed): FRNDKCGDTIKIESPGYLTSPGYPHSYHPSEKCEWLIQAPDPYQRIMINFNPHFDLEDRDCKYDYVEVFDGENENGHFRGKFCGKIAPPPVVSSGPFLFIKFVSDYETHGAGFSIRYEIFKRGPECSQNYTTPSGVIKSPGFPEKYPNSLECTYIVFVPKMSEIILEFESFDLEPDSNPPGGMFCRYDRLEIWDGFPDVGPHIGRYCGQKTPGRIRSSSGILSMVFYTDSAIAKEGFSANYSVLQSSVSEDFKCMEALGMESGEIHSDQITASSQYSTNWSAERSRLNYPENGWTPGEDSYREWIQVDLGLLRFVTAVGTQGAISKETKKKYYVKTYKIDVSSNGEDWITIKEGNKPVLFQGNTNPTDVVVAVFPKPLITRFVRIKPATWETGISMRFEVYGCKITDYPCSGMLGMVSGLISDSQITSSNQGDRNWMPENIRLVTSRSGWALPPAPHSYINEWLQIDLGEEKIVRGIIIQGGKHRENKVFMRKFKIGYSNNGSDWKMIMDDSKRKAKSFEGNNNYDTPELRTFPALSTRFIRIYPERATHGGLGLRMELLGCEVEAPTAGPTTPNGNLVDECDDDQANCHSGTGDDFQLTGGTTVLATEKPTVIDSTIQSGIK
smiles,measurement,setting,value
"CCOc1ccccc1NC(=O)c1ccc(C)c(S(=O)(=O)Nc2ccc(C)cc2)c1 [Compound 1, N-(2-ethoxyphenyl)-4-methyl-3-(N-(p-tolyl)sulfamoyl)benzamide]",IC50,VAL,1000 ± 60 nM
same,IC50,HT-29,500 ± 10 nM
same,IC50,HCT-116,500 ± 70 nM
same,IC50,ERY-1,200 ± 30 nM
same,IC50,NCI-H460,500 ± 70 nM
same,IC50,U87,500 ± 20 nM
same,IC50,DAUDI,500 ± 20 nM
same,IC50,HeLa,200 ± 60 nM
same,IC50,Panc-10.5,500 ± 40 nM
same,IC50,CEM,100 ± 80 nM
same,inhibition at 10 µM,Neuropilin-1 (NRP-1),32 ± 3.2%
